Results published in patent US7045606B2, “Bifunctional chelating agent for actinium” (European Community, priority 2001, dated 2006).

Experiment: complexation properties of chelating agents with 225Ac
Assay type: physicochemical
Conditions: compared with the non-functionalised chelating agents EDTA, DTPA, DOTA, PEPA, HEHA, HOHEC and EDTMP
Method: Different non-functionalised chelating agents (commercially available or readily synthesised in the laboratory) bearing aminocarboxylate groups (EDTA, DTPA, DOTA, PEPA, HEHA and HOHEC) or aminophosphonate groups (EDTMP) were tested for their complexation properties with ^225Ac. […] Polyaza polycarboxylic macrocycles are known to form thermodynamically stable complexes with large metal ions such as actinides and lanthanides.

With `O=C(O)CN1CCN(CC(=O)O)CCN(CC(=O)O)CCN(CC(=O)O)CCN(CC(=O)O)CCN(CC(=O)O)CCN(CC(=O)O)CCN(CC(=O)O)CC1` [HOTEC, 1,4,7,10,13, 16,19,22-octacarboxylmethyl-1,4,7,10,13,16,19,22-octaazacyclotetracosane] the “complexation properties with ^225Ac” value was “best candidate”.
